Literature values as cited in US20230020217A1, “HEPES-CONTAINING MEDIUM” (AJINOMOTO CO., INC., priority 2020, published 2023).

Details: when exposed to light for a long time (Zigler et al. 1985)

**Q.** With `O=S(=O)(O)CCN1CCN(CCO)CC1` [HEPES, 4-(2-hydroxyethyl)-1-piperazineethanesulfonic acid] as the compound, how does the toxicity read?
**A.** toxicity derived from hydrogen peroxide
